Target: T1, papain (Carica papaya, UniProt P00784)
T1 sequence (P00784 134-345): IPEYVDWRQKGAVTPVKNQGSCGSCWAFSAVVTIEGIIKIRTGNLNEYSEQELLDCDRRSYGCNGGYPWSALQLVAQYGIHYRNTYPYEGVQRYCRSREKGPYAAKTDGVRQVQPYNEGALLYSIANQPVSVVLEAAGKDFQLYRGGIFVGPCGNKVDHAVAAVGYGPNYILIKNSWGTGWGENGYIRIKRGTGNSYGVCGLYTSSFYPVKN
Test: Papain digestion to remove drug payloads from ADC linkers, monitored by LC-MS peak areas of surrogate peptides
Assay type: biochemical
Details: papain to substrate ratio 1:200; peak areas of peptides containing cleaved linker
Protocol: According to the concentration of ADC samples, transfer 25 μg of each ADC sample to a new microcentrifuge tube and add water to a total volume of 10 μL. Dilute 20 uL of papain suspension (10 mg/mL) with 180 uL of papain digestion buffer, incubate at 37° C. for 30 min. Dilute 30 uL of papain (nominal concentration of 1 mg/mL) with 120 uL of activation buffer to a nominal concentration of 0.2 mg/mL. Measure papain concentration with UV (ultra-violate) measurement at 280 nm and 320 nm using papain activation buffer as the blank buffer. Dilute activated papain to a final concentration of 0.1 mg/mL with papain activation buffer. Add 1.25 uL of 0.1 mg/mL papain solution (enzyme:substrate ratio is 1:200) to intact ADC, incubate at 37° C. for 1 h. Add 0.5 μL of 0.1 M TCEP-HCl to each sample. Vortex the samples for 3 seconds, and then spin down the samples using a Minicentrifuge for 3 seconds. Incubate samples at 95° C. for 20 minutes with shaking at 800 rpm in a thermomixer. Following incubation, cool down the samples to room temperature for 5 minutes. Spin down the condensation using a Minicentrifuge for 3 seconds. Add 6 μL of 8 M urea in 1 M Tris-HCl, pH 7.5 to each sample. […]
Papain was used to remove the payloads of MAB1-LK1 ADCs. […] Two tryptic peptides, e.g., SCDK (serine-cysteine-aspartic acid-lysine) (SEQ ID NO: 7) and GEC (glycine-glutamic acid-cysteine), were analyzed using LC-MS. […]

mal-amido-PEG8-VA-PABA [LK1]
incubation time for completion of papain digestion to remove drug payloads (cleaved linker monitored): one

mal-amido-Val-Cit-PABA [LK3]
incubation time for completion of papain digestion to remove drug payloads (cleaved linker monitored): one

Reference: patent US11786606B2, “Site-specific quantitation of drug conjugations” (Regeneron Pharmaceuticals, Inc., priority 2019, dated 2023)
